Data set [1] in a line: Mouse pharmacokinetic study, plasma exposure after IP dosing. The data set is classed as in vivo, BALB/c mice. Particulars: IP 10 mg/kg; for Cmax / Plasma AUC0–24 h: female BALB/c mice. The protocol: Pharmacokinetic animal studies were conducted using established procedures in accordance with the Australian Code of Practice for the Care and Use of Animals for Scientific Purposes, and the study protocols were reviewed and approved by the Monash Institute of Pharmaceutical Sciences Animal Ethics Committee. The systemic exposure of GW6471 was studied in non-fasted female BALB/c mice (5 - 8 weeks) weighing 15.2–22.6 g. Mice had access to food and water ad libitum throughout the pre- and post-dose sampling period. GW6471 (10 mg/kg) was dosed to all mice via a single intraperitoneal (IP) injection (5 mL/kg). For the ABT pre-treated group, ABT was pre-dosed to animals at 50 mg/kg via IP injection (5 mL/kg) 2 h prior to administration of GW6471. Following IP administration of GW6471, blood samples were collected up to 24 h at indicated time points (n = 3 mice per time point) with a maximum of three samples from each mouse. Blood samples were collected via submandibular bleed (approximately 120 μL) into polypropylene Eppendorf tubes containing heparin as anticoagulant and stabilisation cocktail (containing the protease inhibitor cocktail Complete® and KF) to minimise the potential for ex vivo compound degradation in blood/plasma samples. Once collected, blood samples were centrifuged immediately, supernatant plasma was removed, and stored at−80°C until analysis by liquid chromatography-mass spectrometry (LC–MS). The plasma concentration versus time profile was defined by the average plasma concentration at each sample time, and PK parameters were calculated using non-compartmental methods (PKSolver Version 2.0).
Compound quantification was performed using a Xevo G2 QTOF (in vitro metabolic stability) using positive electrospray ionisation under MS^E mode or a Waters Xevo TQD (mouse exposure) mass spectrometer using positive electrospray ionisation multiple-reaction monitoring mode. Compounds were eluted using an acetonitrile-water/0.05% formic acid gradient at a flow rate of 0.4 mL/min operating over a 4 min cycle on a Waters Acquity UPLC using a Supelco Ascentis Express RP C8 column (50 × 2.1 mm, 2.7 μm). Extraction was performed by precipitation using acetonitrile (1:1 volume ratio for microsomes and 2:1 volume ratio for plasma samples) followed by centrifugation. Compound concentrations were quantified against calibration standards prepared in an appropriate matrix to match the test samples (e.g. plasma or microsomes).
ABT Formulation: On the evening prior to dosing, ABT was dissolved in a 0.9% (w/v) saline using vortexing and sonicating, resulting in a colourless solution. The nominal concentration of ABT in the formulation was 10 mg/mL. GW6471 Formulation: The final drug contains 40% final volume of PEG400 (Kollisolv PEG E 400, Sigma Aldrich), and 60% final volume of Solutol HS-15 (Kolliphor HS-15, Sigma Aldrich). Solutol is previously mixed in a saline solution (12.5% concentration). On the day of dosing, the solid GW6471 was first dissolved in PEG400by thoroughly vortexing and sonicating for 5 min. Then, the saline solution containing Solutol HS-15 12.5% was added. Again, the formulation was then thoroughly vortexed and sonicated to produce a hazy pale yellow suspension with an apparent pH of 3.4. The nominal concentration of GW6471 in the formulation was 2 mg/mL. […] The dose administered to each mouse was calculated on the basis of the mouse body weight (determined prior to dosing).

Data set [2] has as its system VGE62 human mesothelioma cell line. Nature of the data set: Matrigel invasion scratch assay. In kind it is cell-based. Particulars: VGE62, 0.5, 1, 10 μM, concentration-dependent, p <0.0001. The protocol: Cells were harvested and seeded in Incucyte®ImageLock 96-well plates (Essen BioScience) at a density of 10 x 10^4 cells/mL overnight. A scratch wound was performed on the confluent cells with the 96-pin IncuCyte WoundMaker Tool (Essen BioScience). For migration assays, cells were washed with PBS once before adding 100 μL media with GW6471 at indicated concentrations. For matrigel invasion assays, cells were washed with PBS once before adding 50 μL of matrigel basement membrane matrix (FAL356231; Corning, NY, USA) at 8 mg/mL; lastly 100 μL media with GW6471 at indicated concentrations were added on top of the matrigel. Wounded cells were incubated in the IncuCyte ZOOM® at 37°C with 5% CO2. Data were analysed using the Incucyte® Scratch Wound Cell Migration Software Module and calculating the Relative Wound Density (%) (RWD) for both migration and invasion assays.

Data set [3] deals with angiopoietin-like 4 (Angptl4). Nature of the data set: Angptl4 immunohistochemistry of treated tumors. The data set is classed as in vivo, BALB/c mice. Particulars: GW6471- versus vehicle-treated tumors. The protocol:
Tissues were fixed with 4% paraformaldehyde for 48–72 h and embedded in paraffin. 5 μm sections were cut by microtome (Thermo Fisher Scientific) and placed on Slide SuperFrost Plus White 1 mm (Thermo Fisher Scientific). Slides were deparaffinised as previously explained for hematoxylin and eosin staining. Antigen retrieval was performed with 10 mM citrate, pH6, at high pressure in a pressure cooker for 15 min and 5 min slow release. Sections were rinsed twice with TBST buffer (Tris-Buffer Saline with Tween, 20 mM Tris, 500 mM NaCl, and 0.05% Tween 20) for 5 min under agitation. Quench tissue peroxidase H2O2 was performed for 10 min at room temperature with 3% H2O2 in distilled H2O. The Vectastain® ABC kit, peroxidase (Rabbit IgG) (Vector Laboratories) was used for the following steps. Non-specific binding was performed with 1.5% Normal goat serum in PBS for 20 min at room temperature. Primary antibody Angptl4 (1:50) (409800, Invitrogen), was diluted in PBS/1.5% goat serum and incubated 1 h at room temperature. The secondary biotinylated anti-Rabbit IgG (1:200) (Vector Laboratories), was diluted in PBS and incubated for 30 min at room temperature. Vectastain ABC reagent (Vector Laboratories) was used as per manufacturer's instructions, mixing Reagent A with Reagent B (1:1) and incubating at room temperature 30 min prior use. […]

The test system of another data set is renal cell carcinoma. On the set-up: method as in Abu Aboud et al., 2015. The note with it: 25 μM; ref Abu Aboud et al., 2015; cited from earlier work.
Setting [4] is: ABT 50 mg/kg IP 2 h before (ABT + GW6471).

As a reminder, the Cmax is the highest concentration seen after dosing.

Turning to `CCC(=O)NC[C@H](Cc1ccc(OCCc2nc(-c3ccccc3)oc2C)cc1)N/C(C)=C\C(=O)c1ccc(C(F)(F)F)cc1` [GW6471], in data set [1] (ABT pre-treatment versus none), the “Increase of plasma concentration with ABT pre-treatment (based on AUC and Cmax)” value is “approximately 3 fold”. Further, the Cmax in data set [1] (setting [4]) was 3600 nM; in data set [1] (without ABT), 1180 nM. For the same compound, the “Plasma AUC0–24 h” value in data set [1] (setting [4]) came out at 31.4 h∗μM; in data set [1] (without ABT), 9.81 h∗μM. Also, the “Invasion into matrigel (relative wound density)” value in data set [2] is reported as “significantly inhibited invasion”. Besides, in data set [3], the “Angptl4 staining in tumors” value was “decreased staining of Angptl4”. For the same compound, the “Cell-cycle arrest and apoptosis” value in the data set on renal cell carcinoma is “significant cell-cycle arrest and apoptosis”.

Values taken from article PMC8692993, “PPARα and PPARγ activation is associated with pleural mesothelioma invasion but therapeutic inhibition is ineffective” (iScience, 2021).
